Source: US11298330B2, “Magnesium compositions and methods of use” (Neurocentria, Inc., priority 2017, dated 2022)

Assays:
[1] = tested on: young (9-month old) and aged (25-month old) rats; details: food containing 2% magnesium oxide for 8 days, cited from earlier work
[2] = tested on: diabetic patients; details: nearly 1 g of magnesium daily for 1 month; cited from earlier work
[3] = tested on: cultured rat hippocampal neurons; assay: Probability of transmitter release (Pr) by FM dye uptake; type: cell-based; details: extracellular magnesium concentration from 0.8 mM to 1.2 mM for 4 h
Description: An example of the effect of calcium and magnesium on the regulation of Probability of transmitter release (Pr) is shown in FIG. 3. In an experiment, rat hippocampal neurons were cultured in vitro in varying concentrations of extracellular calcium or magnesium, thereby effectively varying concentrations of intracellular calcium or magnesium. A traceable dye was used as a model neurotransmitter to measure the change in Pr. […] Furthermore, at a relatively low intracellular calcium concentration, the inverse relationship between intracellular magnesium concentration and Pr was more apparent, as shown in FIG. 3B. At a low calcium concentration condition, increasing the extracellular magnesium concentration promoted more synapses with a higher intracellular magnesium concentrations and low Pr values. […]
The Probability of transmitter release (Pr) of cultured rat hippocampal neurons was measured by quantification of N-β-Triethylammoniumpropyl)-4-(4-(Dibutylamino) Styryl) Pyridinium Dibromide (FM) dye uptake following a string of 30 single 1 Hertz (Hz) action potentials (Pr1Ap). […] Intracellular magnesium concentration was quantified by the intensity of MgGreen (MgGrn), a fluorescent dye that was proportional to magnesium concentration (Zhou et al., 2015).

[4] = tested on: diabetic patients; details: 720 mg/day for three months; cited from earlier work

Question: What does the source list for `[O]=[Mg]` [magnesium oxide]?
Answer: side-effect [1]: diarrhea and weight loss; cognitive function ([1]; gain transient): some sign of improvement; increase of serum magnesium level [2]: about 10%; metabolic control [2]: only minor improvement

Question: Which “effect on calcium-Pr relationship” value [3] does the source give for `[Mg+2]` [magnesium] here?
Answer: shifted the calcium-Pr relationship to the right

Question: And the “blood magnesium levels raised, on average” value [4]?
Answer: about 10%

Question: And the “metabolic control as assessed by HbAlc levels” value [4]?
Answer: no improvement
